Results reported in paper PMC9501983, “Transport and Permeation Properties of Dapivirine: Understanding Potential Drug-Drug Interactions” (Pharmaceutics, 2022).

Legend:
[1] = DPV tissue permeability across excised human ectocervical tissue (in-line cell); format: in vitro ADME; details: female, human; 182 µM DPV alone in vaginal fluid simulant pH 4.2, 360 min; read-out: Papp across human cervical tissue
Excerpt: Freshly excised human ectocervical tissue samples from 6 pre-menopausal women were obtained through the Pitt Biospecimen Core at the University of Pittsburgh under an IRB-approved protocol (IRB# PRO09110431). Tissue samples were immersed in ice-cold Dulbecco’s modified Eagle medium during transfer from the surgery site to the laboratory. Tissue samples were then processed as previously reported, where excess stromal tissue was removed using a scalpel, and the epithelium was isolated using a Stadie-Riggs tissue slicer. The isolated epithelium sections were then mounted onto the in-line cell apparatus (PermeGear, Cranford, NJ, USA), a flow-through type Franz cell, with the epithelial side facing the apical compartment. A small piece of tissue sample was fixed in 10% formalin as the pre-treatment control for histology evaluation.
Vaginal fluid simulant was used to prepare drug solutions. Vaginal fluid simulant was prepared using a reported formulation (3.51 g L^−1 sodium chloride, 1.40 g L^−1 potassium hydroxide, 0.22 g L^−1 calcium hydroxide, 0.018 g L^−1 bovine serum albumin, 2.00 g L^−1 lactic acid, 1.00 g L^−1 acetic acid, 0.16 g L^−1 glycerin, 0.4 g L^−1 urea, and 5.0 g L^−1 glucose) and adjusted to pH 4.2 with 1N hydrochloric acid. To evaluate the impact of MIC on DPV tissue permeability, 450 μL of a mixture containing 182 µM (60 μg g^−1) DPV and 63 mM (30 mg g^−1) MIC was added to the apical compartment and compared to 182 µM (60 μg g^−1) DPV alone. […] One half of the tissue sample was fixed in 10% formalin for subsequent histological evaluation, while the other half was used for drug quantification. To quantify drug tissue levels, each tissue sample was digested overnight in 2 mL Solvable held at 50 °C. […] Samples were then cooled to room temperature and 1.5 mL of each sample was used for quantification. To quantify ^3H-DPV and ^14C-mannitol, each vial of collected sample was mixed with 2 mL scintillation cocktail and analyzed on an LS6500 liquid scintillation counter. Papp was calculated using Equation (2) as described above.

[2] = molecular target: T1, BCRP (Homo sapiens, UniProt Q9UNQ0); experiment: Bi-directional transport across MDCKII BCRP and WT/EV cell monolayers
T1 sequence (Q9UNQ0 1-655): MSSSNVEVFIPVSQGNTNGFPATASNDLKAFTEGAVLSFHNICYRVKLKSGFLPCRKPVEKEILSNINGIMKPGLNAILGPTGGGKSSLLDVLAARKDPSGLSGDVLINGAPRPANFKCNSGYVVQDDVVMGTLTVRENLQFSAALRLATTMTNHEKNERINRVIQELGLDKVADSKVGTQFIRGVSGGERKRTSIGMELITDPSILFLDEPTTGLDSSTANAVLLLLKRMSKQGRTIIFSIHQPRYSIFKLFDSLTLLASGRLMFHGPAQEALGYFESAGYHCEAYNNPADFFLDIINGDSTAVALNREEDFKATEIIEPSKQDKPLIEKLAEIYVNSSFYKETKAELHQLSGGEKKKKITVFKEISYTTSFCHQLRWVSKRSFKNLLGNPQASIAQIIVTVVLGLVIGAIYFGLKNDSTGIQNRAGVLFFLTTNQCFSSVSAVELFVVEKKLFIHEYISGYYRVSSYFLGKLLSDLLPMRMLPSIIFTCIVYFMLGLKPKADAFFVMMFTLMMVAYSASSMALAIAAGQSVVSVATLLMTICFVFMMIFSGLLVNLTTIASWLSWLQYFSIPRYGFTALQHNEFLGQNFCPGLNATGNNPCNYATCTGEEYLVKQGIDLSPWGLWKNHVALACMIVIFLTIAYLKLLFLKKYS

[3] = tested on: UGT enzymes; design: method as in PMID 34959473; details: cited from earlier work

Cc1cc(C)c(Nc2ccnc(Nc3ccc(C#N)cc3)n2)c(C)c1 [DPV, dapivirine]
Papp at 360 min, 182 µM [1]: 0.88 ± 0.53 ×10⁻⁶ cm/s
DPV ER in MDCKII BCRP cells with Ko143, reduced to % of ER without ([2]; 0.5 μM DPV, 1 μM Ko143): 85%
Impact on Papp of nitrofurantoin across MDCKII BCRP monolayers (either direction) ([2]; 5 μM DPV, 1 μM nitrofurantoin): no significant impact
Substrate status for BCRP ([2]; cellular system): not a substrate
efflux ratio at 90 min, 0.5 μM ([2]; dog, pH 7.4): 1.33
Substrate of UGT enzymes [3]: not a substrate
